Measured values: patent US11957759B1, “Rapidly accelerated fibrosarcoma (RAF) degrading compounds and associated methods of use” (Arvinas Operations, Inc., priority 2022, dated 2024)

Legend:
B-RAF V600E = target: T1, B-RAF V600E (Homo sapiens, UniProt P15056, V600E); test: Target protein degradation, assay C: T-Rex 293 cells, HA-BRAF_V600E, 384 well format; type: cell-based; conditions: T-Rex 293 HA-BRAF_V600E cells, 24 hours, Examples 83-269; for DC50: Assay C; for Dmax: T-REx-293, Assay C
T1 construct: expressed in transfected cells; host or cells: T-Rex 293 cells (Invitrogen #R71007)
In short: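 T-Rex 293 cells stably expressing doxycycline-induced (1 ng/mL) HA-BRAF V600E were treated 24 h at 37 °C with compound (300 nM–5 pM, 11 points, 0.5% DMSO). HA immunofluorescence was quantified by high-content imaging to give DC50 and Dmax (% of control); nuclei counts versus DMSO gauged toxicity.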

B-RAF G466V = target: T2, B-RAF G466V (Homo sapiens, UniProt P15056, G466V); test: Target protein degradation, assay D: T-Rex 293 cells, HA-BRAF_G466V, 384 well format; type: cell-based; conditions: T-Rex 293 HA-BRAF_G466V cells, 24 hours, Examples 83-269; for DC50: Assay D; for Dmax: T-REx-293, Assay D
T2 construct: expressed in transfected cells; host or cells: T-Rex 293 cells (Invitrogen #R71007)
In short: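 T-Rex 293 cells stably expressing doxycycline-induced (1 ng/mL) HA-BRAF G466V treated 24 h at 37 °C with PROTACs, 11-point 1:3 dilution, 300 nM to 5 pM final, 0.5% DMSO. Fixed cells immunostained for HA and imaged by high-content microscopy; DC50 and Dmax (% of control) derived, toxicity from nuclei counts versus DMSO.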

T2 sequence (P15056 whole entry G466V): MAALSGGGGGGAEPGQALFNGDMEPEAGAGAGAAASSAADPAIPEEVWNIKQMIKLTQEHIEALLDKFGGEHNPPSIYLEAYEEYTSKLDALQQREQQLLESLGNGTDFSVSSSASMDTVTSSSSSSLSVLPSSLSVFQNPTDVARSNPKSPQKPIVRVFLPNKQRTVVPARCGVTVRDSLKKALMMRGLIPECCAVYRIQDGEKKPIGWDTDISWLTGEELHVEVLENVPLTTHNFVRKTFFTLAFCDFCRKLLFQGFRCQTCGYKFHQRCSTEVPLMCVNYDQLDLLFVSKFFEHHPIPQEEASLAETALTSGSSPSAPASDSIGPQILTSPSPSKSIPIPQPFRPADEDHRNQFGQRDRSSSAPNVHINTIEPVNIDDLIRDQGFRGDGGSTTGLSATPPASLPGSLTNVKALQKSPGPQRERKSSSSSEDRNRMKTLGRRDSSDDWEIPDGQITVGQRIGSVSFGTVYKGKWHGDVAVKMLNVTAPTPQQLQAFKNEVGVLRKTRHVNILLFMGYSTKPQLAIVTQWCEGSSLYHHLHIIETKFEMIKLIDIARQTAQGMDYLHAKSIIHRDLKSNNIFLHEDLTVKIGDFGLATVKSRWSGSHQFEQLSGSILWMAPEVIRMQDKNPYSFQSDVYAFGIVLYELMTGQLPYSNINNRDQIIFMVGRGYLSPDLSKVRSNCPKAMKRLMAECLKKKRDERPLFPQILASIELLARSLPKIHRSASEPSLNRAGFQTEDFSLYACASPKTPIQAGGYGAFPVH
T1 sequence (P15056 whole entry V600E): as the sequence (P15056 whole entry G466V) above, with V466G, V600E counted along it

| SMILES | DC50 (B-RAF V600E) | Dmax (B-RAF V600E) | DC50 (B-RAF G466V) | Dmax (B-RAF G466V) |
| --- | --- | --- | --- | --- |
| N#Cc1c(NS(=O)(=O)N2CC[C@@H](F)C2)ccc(F)c1Oc1ccc2ncn(-c3cccc(C4CCN(CC5CCN(c6ccc7c(c6)CN([C@H]6CCC(=O)NC6=O)C7=O)CC5)C4)c3)c(=O)c2c1 (single isomer, unassigned) [Example 257, (3R)-N-{2-cyano-3-[(3-{3-[(3R*)-1-[(1-{2-[(3S)-2,6-dioxopiperidin-3-yl]-1-oxo-2,3-dihydro-1H-isoindol-5-yl}piperidin-4-yl)methyl]pyrrolidin-3-yl]phenyl}-4-oxo-3,4-dihydroquinazolin-6-yl)oxy]-4-fluorophenyl}-3-fluoropyrrolidine-1-sulfonamide] | 50 to 500 nM | 35 to 70% | 1 to 10 nM | 35 to 70% |
| N#Cc1c(NS(=O)(=O)N2CC[C@@H](F)C2)ccc(F)c1Oc1ccc2ncn(-c3ccc(N4CC(CN5CCN(C6CCN(c7ccc8c(c7)C(=O)N(C7CCC(=O)NC7=O)C8=O)CC6)CC5)C4)nc3)c(=O)c2c1 (stereo partly drawn) [Example 170, (3R)-N-(2-cyano-3-{[3-(6-{3-[(4-{1-[2-(2,6-dioxopiperidin-3-yl)-1,3-dioxo-2,3-dihydro-1H-isoindol-5-yl]piperidin-4-yl}piperazin-1-yl)methyl]azetidin-1-yl}pyridin-3-yl)-4-oxo-3,4-dihydroquinazolin-6-yl]oxy}-4-fluorophenyl)-3-fluoropyrrolidine-1-sulfonamide] | 5 to 50 nM | ≤ 35% | 1 to 10 nM | ≤ 35% |
| N#Cc1c(NS(=O)(=O)N2CC[C@@H](F)C2)ccc(F)c1Oc1ccc2ncn(-c3ccc(N4CCC(CN5CC6(CCN(c7ccc8c(c7)CN([C@H]7CCC(=O)NC7=O)C8=O)CC6)C5)C4)cc3)c(=O)c2c1 (stereo partly drawn) [Example 233, (3R)-N-(2-cyano-3-{[3-(4-{3-[(7-{2-[(3S)-2,6-dioxopiperidin-3-yl]-1-oxo-2,3-dihydro-1H-isoindol-5-yl}-2,7-diazaspiro[3.5]nonan-2-yl)methyl]pyrrolidin-1-yl}phenyl)-4-oxo-3,4-dihydroquinazolin-6-yl]oxy}-4-fluorophenyl)-3-fluoropyrrolidine-1-sulfonamide] | 50 to 500 nM | 35 to 70% | 10 to 30 nM | 35 to 70% |
| CN(c1ccc2c(c1)CN([C@@H]1CCC(=O)NC1=O)C2=O)[C@H]1CC[C@H](N2CCN(c3ccc(-n4cnc5ccc(Oc6c(F)ccc(NS(=O)(=O)N7CC[C@@H](F)C7)c6C#N)cc5c4=O)cc3)CC2)CC1 [Example 229, (3R)-N-(2-cyano-4-fluoro-3-{[4-oxo-3-(4-{4-[(1r,4r)-4-({2-[(3R)-2,6-dioxopiperidin-3-yl]-1-oxo-2,3-dihydro-1H-isoindol-5-yl}(methyl)amino)cyclohexyl]piperazin-1-yl}phenyl)-3,4-dihydroquinazolin-6-yl]oxy}phenyl)-3-fluoropyrrolidine-1-sulfonamide] | 50 to 500 nM | 35 to 70% | 1 to 10 nM | 35 to 70% |
| N#Cc1c(NS(=O)(=O)N2CC[C@@H](F)C2)ccc(F)c1Oc1ccc2ncn(-c3ccc(N4CCC5(CC4)CC(OC4CCN(c6ccc7c(c6)CN([C@H]6CCC(=O)NC6=O)C7=O)CC4)C5)cc3)c(=O)c2c1 [Example 250, (3R)—N-(2-cyano-3-{[3-(4-{2-[(1-{2-[(3S)-2,6-dioxopiperidin-3-yl]-1-oxo-2,3-dihydro-1H-isoindol-5-yl}piperidin-4-yl)oxy]-7-azaspiro[3.5]nonan-7-yl}phenyl)-4-oxo-3,4-dihydroquinazolin-6-yl]oxy}-4-fluorophenyl)-3-fluoropyrrolidine-1-sulfonamide] | 50 to 500 nM | 35 to 70% | 1 to 10 nM | 35 to 70% |
| N#Cc1c(NS(=O)(=O)N2CC[C@@H](F)C2)ccc(F)c1Oc1ccc2ncn(-c3cnc(N4CC5(CN(CC6CCN(c7cccc8c7C(=O)N(C7CCC(=O)NC7=O)C8=O)CC6)C5)C4)nc3)c(=O)c2c1 (stereo partly drawn) [Example 154, (3R)-N-{2-cyano-3-[(3-(2-[6-({1-[2-(2,6-dioxopiperidin-3-yl)-1,3-dioxo-2,3-dihydro-1H-isoindol-4-yl]piperidin-4-yl}methyl)-2,6-diazaspiro[3.3]heptan-2-yl]pyrimidin-5-yl}-4-oxo-3,4-dihydroquinazolin-6-yl)oxy]-4-fluorophenyl}-3-fluoropyrrolidine-1-sulfonamide] | 50 to 500 nM | ≤ 35% | 10 to 30 nM | ≤ 35% |
| N#Cc1c(NS(=O)(=O)N2CC[C@@H](F)C2)ccc(F)c1Oc1ccc2ncn(-c3ccc(N4CCN(C(=O)C5CN(c6ccc7c(c6)CN([C@H]6CCC(=O)NC6=O)C7=O)C5)CC4)cc3)c(=O)c2c1 [Example 243, (3R)-N-{2-cyano-3-[(3-{4-[4-(1-{2-[(3S)-2,6-dioxopiperidin-3-yl]-1-oxo-2,3-dihydro-1H-isoindol-5-yl}azetidine-3-carbonyl)piperazin-1-yl]phenyl}-4-oxo-3,4-dihydroquinazolin-6-yl)oxy]-4-fluorophenyl}-3-fluoropyrrolidine-1-sulfonamide] | > 500 nM |  | 10 to 30 nM | 35 to 70% |
| N#Cc1c(NS(=O)(=O)N2CC[C@@H](F)C2)ccc(F)c1Oc1ccc2ncn(-c3ccc(N4CCC(CN5CC6(C5)CN(c5ccc7c(c5)C(=O)N(C5CCC(=O)NC5=O)C7=O)C6)CC4)nc3)c(=O)c2c1 (stereo partly drawn) [Example 171, (3R)-N-{2-cyano-3-[(3-{6-[4-({6-[2-(2,6-dioxopiperidin-3-yl)-1,3-dioxo-2,3-dihydro-1H-isoindol-5-yl]-2,6-diazaspiro[3.3]heptan-2-yl}methyl)piperidin-1-yl]pyridin-3-yl}-4-oxo-3,4-dihydroquinazolin-6-yl)oxy]-4-fluorophenyl}-3-fluoropyrrolidine-1-sulfonamide] | 50 to 500 nM | 35 to 70% | 1 to 10 nM | 35 to 70% |
| C[C@H]1CC(CN2CCC(c3ccc4c(c3)CN(C3CCC(=O)NC3=O)C4=O)CC2)CCN1c1ccc(-n2cnc3ccc(Oc4c(F)ccc(NS(=O)(=O)N5CC[C@@H](F)C5)c4C#N)cc3c2=O)cc1 (stereo partly drawn) [Example 232, (3R)-N-{2-cyano-3-[(3-{4-[(2S)-4-({4-[2-(2,6-dioxopiperidin-3-yl)-1-oxo-2,3-dihydro-1H-isoindol-5-yl]piperidin-1-yl}methyl)-2-methylpiperidin-1-yl]phenyl}-4-oxo-3,4-dihydroquinazolin-6-yl)oxy]-4-fluorophenyl}-3-fluoropyrrolidine-1-sulfonamide] | 50 to 500 nM | 35 to 70% | 1 to 10 nM | 35 to 70% |
| N#Cc1c(NS(=O)(=O)N2CC[C@@H](F)C2)ccc(F)c1Oc1ccc2ncn(-c3ccc(N4CCC(CN5CC6(CCC(c7ccc8c(c7)CN([C@@H]7CCC(=O)NC7=O)C8=O)CC6)C5)CC4)cc3)c(=O)c2c1 [Example 220, (3R)-N-(2-cyano-3-{[3-(4-{4-[(7-{2-[(3R)-2,6-dioxopiperidin-3-yl]-1-oxo-2,3-dihydro-1H-isoindol-5-yl}-2-azaspiro[3.5]nonan-2-yl)methyl]piperidin-1-yl}phenyl)-4-oxo-3,4-dihydroquinazolin-6-yl]oxy}-4-fluorophenyl)-3-fluoropyrrolidine-1-sulfonamide] | 50 to 500 nM | 35 to 70% | 10 to 30 nM | 35 to 70% |
| Cc1c(N2CCC(CN3CCN(c4ccc(-n5cnc6ccc(Oc7c(F)ccc(NS(=O)(=O)N8CC[C@@H](F)C8)c7C#N)cc6c5=O)cc4)CC3)CC2)ccc2c1CN(C1CCC(=O)NC1=O)C2=O (single isomer, unassigned) [Example 113, (3R)-N-(2-cyano-3-{[3-(4-{4-[(1-{2-[(3R*)-2,6-dioxopiperidin-3-yl]-4-methyl-1-oxo-2,3-dihydro-1H-isoindol-5-yl}piperidin-4-yl)methyl]piperazin-1-yl}phenyl)-4-oxo-3,4-dihydroquinazolin-6-yl]oxy}-4-fluorophenyl)-3-fluoropyrrolidine-1-sulfonamide] | 50 to 500 nM |  | 1 to 10 nM |  |
